These results are taken from patent US10507213B2, “Method for treating cancer using a selenourea-coordinated gold(I)-carbene complex” (King Fahd University of Petroleum and Minerals, priority 2017, dated 2019).

In data set [1] the test system is MCF7 (breast cancer cells). Description: in vitro cytotoxicity, MTT assay, MCF7. The data set is classed as cell-based, human. The note with it: 72 h incubation, three independent experiments, read-out: IC50 values against MCF7 cancer cell line. On the procedure:
(§1) The complexes, [Au(IPr)Cl] and [Au(IPr)(Seu)]PF6 (1) were tested for their in vitro cytotoxic effects against human cell lines; MCF7 (breast cancer), HCI15 (colon cancer) and A549 (lung carcinoma) as reported previously. See M. Altaf, M. Monim-ul-Mehboob, A. A. A. Seliman, A. A. Tsai), V. Dhuna, G. Bhatia, K. Dhuna, Synthesis, X-ray Structures, Spectroscopic Analysis and Anticancer Activity of Novel Gold(I) Carbene Complexes, J. Organomet. Chem, 765 (2014) 68-79, incorporated herein by reference in its entirety. The cells were seeded at the concentration of 3×10^3 cells/well in 100 μL of DMEM containing 10% fetal bovine serum (FBS) in a 96-well tissue culture plate and incubated for 72 h at 37° C., 5% CO2 and 90% relative humidity in a CO2 incubator. After that 100 μL of 100, 50, 25 and 12.5 μM solutions of cisplatin and gold(I) complexes prepared in DMEM were added to the cells and the cultures were incubated for 72 h. The medium in the wells was cast off and 100 μL of DMEM containing MTT (0.5 mg/ml) was added to the wells, with subsequent incubation in the CO2 incubator at 37° C. in the dark for 4 h. After incubation, purple-colored formazan produced by the cells appeared as dark crystals in the bottom of the wells. The culture medium was carefully removed from each well to prevent disruption of the monolayer and 100 μL of dimethylsulfoxide (DMSO) was added to each well. The solution in the wells was thoroughly mixed to dissolve the formazan crystals which produce a purple solution. The absorbance of the 96 well-plates was measured at 570 nm with LabSystems Multiskan EX-ELISA reader against a reagent blank. The experimental results are calculated as the micromolar concentration of 50% cell growth inhibition (IC50) of each drug. The MTT assay was carried out in three independent experiments for each analysis. […]
For orientation: Tetrazolium assays rely on reduction of a dye to a coloured formazan, in cell work by metabolically active cells.

In data set [2] the test system is HCT15 (colon cancer cells). Description: in vitro cytotoxicity, MTT assay, HCT15. Format: cell-based, human. The note with it: 72 h incubation, three independent experiments, read-out: IC50 values against HCT15 cancer cell line. As to the method:
as §1

A further data set deals with A549 (lung carcinoma). Kind of data set: in vitro cytotoxicity, MTT assay, A549. The data set is classed as cell-based, human. The note with it: 72 h incubation, three independent experiments, read-out: IC50 values against A549 cancer cell line. On the procedure:
The complexes, [Au(IPr)Cl] and [Au(IPr)(Seu)]PF6 (1) were tested for their in vitro cytotoxic effects against human cell lines; MCF7 (breast cancer), HCI15 (colon cancer) and A549 (lung carcinoma) as reported previously. See M. Altaf, M. Monim-ul-Mehboob, A. A. A. Seliman, A. A. Tsai), V. Dhuna, G. Bhatia, K. Dhuna, Synthesis, X-ray Structures, Spectroscopic Analysis and Anticancer Activity of Novel Gold(I) Carbene Complexes, J. Organomet. Chem, 765 (2014) 68-79, incorporated herein by reference in its entirety. The cells were seeded at the concentration of 3×10^3 cells/well in 100 μL of DMEM containing 10% fetal bovine serum (FBS) in a 96-well tissue culture plate and incubated for 72 h at 37° C., 5% CO2 and 90% relative humidity in a CO2 incubator. […] The medium in the wells was cast off and 100 μL of DMEM containing MTT (0.5 mg/ml) was added to the wells, with subsequent incubation in the CO2 incubator at 37° C. in the dark for 4 h. After incubation, purple-colored formazan produced by the cells appeared as dark crystals in the bottom of the wells. The culture medium was carefully removed from each well to prevent disruption of the monolayer and 100 μL of dimethylsulfoxide (DMSO) was added to each well. The solution in the wells was thoroughly mixed to dissolve the formazan crystals which produce a purple solution. The absorbance of the 96 well-plates was measured at 570 nm with LabSystems Multiskan EX-ELISA reader against a reagent blank. The experimental results are calculated as the micromolar concentration of 50% cell growth inhibition (IC50) of each drug. The MTT assay was carried out in three independent experiments for each analysis.
The complexes, [Au(Ipr)Cl] and [Au(Ipr)(Seu)]PF6 or Complex (I), as well as cisplatin (standard anticancer drug) were tested for in vitro cytotoxicity against three human cancer cell lines; A549 (lung carcinoma), HCT15 (colon cancer cells) and MCF7 (breast cancer cells) using MTT assay.
The IC50 values (as μM) obtained from the plot of the concentration of compounds against the percentage of cell viability are given in Table 4. […]

A short description of data set [3]: stability in polar solvents. Format: physicochemical. The note with it: water, methanol, ethanol, acetone; deuterated solvents such as dichloromethane.
The nature of data set [4]: solubility in phosphate buffer estimated from SWSV. The note with it: 0.1 M phosphate buffer (pH 7.0); estimation based on the highest soluble concentration. Format: physicochemical. On the procedure:
(§2) Electrochemical (Square wave stripping voltammetry, SWSV) measurements were performed on a CH Instrument (CHI 1232A) potentiostat. Electrochemical cell comprises of a platinum wire as a counter electrode, an Ag/AgCl saturated with KCl as reference electrode and glassy carbon electrode (GCE; 3.0 mm diameter, Model CHI104, CH Instruments, Austin, Tex.) as a working electrode inserted into 2.0 mL glass cell containing phosphate buffer solution, pH 7.0 as supporting electrolyte. 0.1 M buffer solution was prepared by mixing, appropriate volumes of 0.2 M monosodium phosphate and disodium phosphate prepared with distilled water. Stock solutions of the complex prepared with methanol, while L-tyrosine and L-tryptophan were prepared by dissolving in 0.10 M NaOH in ratio 1:4 with distilled water. GCE was polished with 0.05 μm alumina, rinsed with distilled water prior to every SWSV measurements at room temperature in a quiescent condition at potential windows between −0.20 V and 1.20 V for the stability and 0.00 V and 1.20 V for the interaction studies. Working conditions are; pulse width (increment) 4 mV, pulse height (amplitude) 25 mV and frequency, 15 Hz.
(§3) The stability and electrochemical behavior of complex 1 were examined by its electroactive properties in phosphate buffer solution of pH 7.0 using SWSV technique (Square wave stripping voltammetry). […]

Data set [5] in a line: stability by square wave stripping voltammetry (SWSV) in phosphate buffer. The note with it: phosphate buffer pH 7.0, SWSV, 50, 75 and 100 μM. The data set is classed as physicochemical. As to the method: as §2, §3

Broadly, the IC50 is the point on the concentration scale where inhibition reaches its midpoint. Turning to `N.N.[Cl][Pt][Cl]` [Cisplatin], the figures for the half-inhibitory concentration (IC50) (in data set [1]; in data set [2]; with A549 (lung carcinoma)) were 23 ± 4 µM, 32 ± 2 µM and 42 ± 2 µM, respectively.

As to `CC(C)c1cccc(C(C)C)c1-n1cc[n+](-c2c(C(C)C)cccc2C(C)C)[c]1[Au-][Se+]=C(N)N.F[P-](F)(F)(F)(F)F` [Complex 1, [Au(IPr)(Seu)]PF6], the IC50 in data set [1] amounted to 75 ± 3 µM; in data set [2] it was 76 ± 2 µM; with A549 (lung carcinoma), 82 ± 1 µM. In addition, the “stability in polar solvents” value in data set [3] was “stable in polar solvents such as water, methanol, ethanol and acetone”. For the same compound, the “solubility in phosphate buffer” value in data set [4] is listed as no less than 8.53 mg/100 ml. The “stability in aqueous solution” value in data set [5] was “stable in aqueous solution”.

Regarding “chlorido[1,3-Bis(2,6-di isopropylphenyl)imidazol-2-ylidene]gold(I) [[Au(Ipr)Cl]]”, the half-maximal inhibitory concentration (IC50) worked out at 110 ± 2 µM in data set [1], 122 ± 1 µM in data set [2] and 180 ± 2 µM in the data set on A549 (lung carcinoma).
